What was measured:
[1] = biological target: T1, ABCG2 (Homo sapiens, UniProt Q9UNQ0); test: vanadate-sensitive ATPase assay in ABCG2 membranes (stimulation up to […]); also inhibition of [3H]-mitoxantrone efflux at […]; type: cell-based; design: full-length human ABCG2 in membranes of transfected HEK293 cells; conditions: read-out: vanadate-sensitive ATPase assay in ABCG2 membranes (stimulation up to 4.3-fold)
T1 sequence (Q9UNQ0 1-655): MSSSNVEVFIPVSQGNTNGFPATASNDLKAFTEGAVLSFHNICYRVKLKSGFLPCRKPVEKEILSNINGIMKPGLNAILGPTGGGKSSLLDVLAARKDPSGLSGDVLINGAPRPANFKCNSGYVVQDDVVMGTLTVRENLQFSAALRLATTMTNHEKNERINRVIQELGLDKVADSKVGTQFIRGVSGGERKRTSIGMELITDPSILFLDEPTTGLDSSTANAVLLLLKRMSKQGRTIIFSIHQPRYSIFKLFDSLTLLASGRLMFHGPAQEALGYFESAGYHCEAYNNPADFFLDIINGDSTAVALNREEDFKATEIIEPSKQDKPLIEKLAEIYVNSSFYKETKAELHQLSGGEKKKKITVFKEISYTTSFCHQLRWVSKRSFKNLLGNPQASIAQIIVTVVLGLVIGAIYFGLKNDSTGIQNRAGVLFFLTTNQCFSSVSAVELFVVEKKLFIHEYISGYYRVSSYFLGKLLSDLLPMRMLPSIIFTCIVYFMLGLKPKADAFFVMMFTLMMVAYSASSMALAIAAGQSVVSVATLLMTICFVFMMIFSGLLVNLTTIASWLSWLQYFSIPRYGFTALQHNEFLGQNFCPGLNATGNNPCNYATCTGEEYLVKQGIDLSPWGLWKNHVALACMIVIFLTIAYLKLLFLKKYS

[2] = biological target: T1, ABCG2; test: vanadate-sensitive ATPase assay in ABCG2 membranes (stimulation); type: cell-based; design: full-length human ABCG2 in membranes of transfected HEK293 cells
[3] = biological target: T1, ABCG2

Molecule `Cc1ccc(NC(=O)c2cccc(C(C)(C)C#N)c2)cc1Nc1ccc2ncn(C)c(=O)c2c1` [AZ-628] has a maximal fold induction [1] of 4.3.

For `COc1ccc([C@@H](O)c2cc(-c3ncnc4cc(N5CCOCC5)ccc34)c(F)cc2Cl)nn1` [M3814], the “vanadate-sensitive ATPase assay in ABCG2 membranes (stimulation)” value [2] was “The results showed that AZ-628 stimulated ABCG2 ATPase to a higher level than M3814”.

For `O=C1c2c(O)ccc(O)c2C(=O)c2c(NCCNCCO)ccc(NCCNCCO)c21` [mitoxantrone], the “[3H]-mitoxantrone efflux from ABCG2-overexpressing cells” value [3] was “plotted to reflect the efflux of [^3H]-mitoxantrone by ABCG2”.

In the case of `CC[C@@]1(O)C(=O)OCc2c1cc1n(c2=O)Cc2cc3c(CN(C)C)c(O)ccc3nc2-1` [topotecan], the “vanadate-sensitive ATPase assay in ABCG2 membranes (stimulation)” value [2] is reported as “Compared with the ABCG2 substrate topotecan, which is also an ABCG2 ATPase stimulator, AZ-628 showed stronger activation effects”.

Reference: article PMC7753047, “Reversal of Cancer Multidrug Resistance (MDR) Mediated by ATP-Binding Cassette Transporter G2 (ABCG2) by AZ-628, a RAF Kinase Inhibitor” (Frontiers in Cell and Developmental Biology, 2020)
